This note sets out measurements from paper PMC5218480 (PLoS ONE, 2017).

The test system of the assay is MV-4-11 cells. The experiment in a line: Gene expression microarray analysis (Affymetrix PrimeView) and GSEA. The arrangement: RFU PODN (11730768_x_at) / Fold change /veh PODN (11730768_x_at) / RFU LINC00158 (11744669_a_at) / Fold change /veh LINC00158 (11744669_a_at) / RFU DUSP10 (11751237_a_at) / Fold change /veh DUSP10 (11751237_a_at) / RFU ID3 (11757404_x_at) / Fold change /veh ID3 (11757404_x_at) / RFU PLEKHG5 (11737974_s_at) / Fold change /veh PLEKHG5 (11737974_s_at) / RFU LRRC4B (11730491_at) / Fold change /veh LRRC4B (11730491_at) / RFU GIMAP4 (11747438_a_at) / Fold change /veh GIMAP4 (11747438_a_at) / RFU KRT8 (11758183_x_at) / Fold change /veh KRT8 (11758183_x_at) / RFU CNN1 (11734310_a_at) / Fold change /veh CNN1 (11734310_a_at) / RFU VPS37D (11726825_at) / Fold change /veh VPS37D (11726825_at) / RFU C10orf10 (11716522_x_at) / Fold change /veh C10orf10 (11716522_x_at) / RFU KIR2DL2 /// KIR2DL4 /// KIR2DL5A /// KIR2DL5B /// KIR2DS1 /// KIR2DS2 /// KIR2DS3 /// KIR2DS4 /// KIR3DL3 /// KIR3DL3 /// KIR3DS1 (11738374_at) / Fold change /veh KIR2DL2 /// KIR2DL4 /// KIR2DL5A /// KIR2DL5B /// KIR2DS1 /// KIR2DS2 /// KIR2DS3 /// KIR2DS4 /// KIR3DL3 /// KIR3DL3 /// KIR3DS1 (11738374_at) / RFU C1QL1 (11718748_at) / Fold change /veh C1QL1 (11718748_at) / RFU TMPRSS4 (11747572_a_at) / Fold change /veh TMPRSS4 (11747572_a_at) / RFU HAMP (11756126_x_at) / Fold change /veh HAMP (11756126_x_at) / RFU RNFT2 (11725882_a_at) / Fold change /veh RNFT2 (11725882_a_at) / RFU NR4A2 (11747474_a_at) / Fold change /veh NR4A2 (11747474_a_at) / RFU ABCC12 (11746883_a_at) / Fold change /veh ABCC12 (11746883_a_at) / RFU TMEM136 (11760407_x_at) / Fold change /veh TMEM136 (11760407_x_at) / RFU CLDN22 /// WWC2 (11732394_at) / Fold change /veh CLDN22 /// WWC2 (11732394_at) / RFU HLA-DPB1 (11760878_x_at) / Fold change /veh HLA-DPB1 (11760878_x_at) / RFU SPINT1 (11716480_a_at) / Fold change /veh SPINT1 (11716480_a_at) / RFU GAP43 (11754022_s_at) / Fold change /veh GAP43 (11754022_s_at) / RFU A4GNT (11735810_at) / Fold change /veh A4GNT (11735810_at) / RFU PRB3 (11715151_x_at) / Fold change /veh PRB3 (11715151_x_at) / RFU TUBB4B (11761932_at) / Fold change /veh TUBB4B (11761932_at) / RFU CAPN14 (11732068_a_at) / Fold change /veh CAPN14 (11732068_a_at) / RFU TMCC2 (11721928_a_at) / Fold change /veh TMCC2 (11721928_a_at) / RFU IRGQ (11745062_a_at) / Fold change /veh IRGQ (11745062_a_at) / RFU FAM174B (11720279_a_at) / Fold change /veh FAM174B (11720279_a_at) / RFU TMPRSS4 (11748680_a_at) / Fold change /veh TMPRSS4 (11748680_a_at) / RFU FAM212B (11763350_a_at) / Fold change /veh FAM212B (11763350_a_at) / RFU PLEKHG5 (11743358_a_at) / Fold change /veh PLEKHG5 (11743358_a_at) / RFU ZSCAN30 (11745921_a_at) / Fold change /veh ZSCAN30 (11745921_a_at) / RFU CMKLR1 (11741424_a_at) / Fold change /veh CMKLR1 (11741424_a_at) / RFU LOC101060620 /// MAPK8IP1 (11723275_at) / Fold change /veh LOC101060620 /// MAPK8IP1 (11723275_at) / RFU SPTSSB (11747773_x_at) / Fold change /veh SPTSSB (11747773_x_at) / RFU PRSS12 (11739890_at) / Fold change /veh PRSS12 (11739890_at) / RFU BIN1 (11741810_x_at) / Fold change /veh BIN1 (11741810_x_at) / RFU WNT11 (11732464_a_at) / Fold change /veh WNT11 (11732464_a_at) / RFU C10orf10 (11716521_a_at) / Fold change /veh C10orf10 (11716521_a_at) / RFU C5orf56 (11738089_at) / Fold change /veh C5orf56 (11738089_at) / RFU CYB561 (11721691_x_at) / Fold change /veh CYB561 (11721691_x_at) / RFU ANKRD19P (11752326_a_at) / Fold change /veh ANKRD19P (11752326_a_at) / RFU OR2T12 /// OR2T33 /// OR2T8 (11738714_s_at) / Fold change /veh OR2T12 /// OR2T33 /// OR2T8 (11738714_s_at) / RFU VCAN (11748164_a_at) / Fold change /veh VCAN (11748164_a_at) / RFU JSRP1 (11732532_at) / Fold change /veh JSRP1 (11732532_at) / RFU KRTAP10-11 (11738290_x_at) / Fold change /veh KRTAP10-11 (11738290_x_at) / RFU MYO3A (11730013_a_at) / Fold change /veh MYO3A (11730013_a_at) / RFU EBF3 (11725865_a_at) / Fold change /veh EBF3 (11725865_a_at) / RFU CAMK2N1 (11719241_x_at) / Fold change /veh CAMK2N1 (11719241_x_at) / RFU C5orf56 (11738088_a_at) / Fold change /veh C5orf56 (11738088_a_at) / RFU OLFML3 (11715873_a_at) / Fold change /veh OLFML3 (11715873_a_at) / RFU LOC100653217 /// NTM (11731650_a_at) / Fold change /veh LOC100653217 /// NTM (11731650_a_at) / RFU MAPK11 (11762145_a_at) / Fold change /veh MAPK11 (11762145_a_at) / RFU FIZ1 (11724087_x_at) / Fold change /veh FIZ1 (11724087_x_at) / RFU OASL (11726364_x_at) / Fold change /veh OASL (11726364_x_at) / RFU SOX15 (11748057_x_at) / Fold change /veh SOX15 (11748057_x_at) / RFU CD79A (11719716_a_at) / Fold change /veh CD79A (11719716_a_at) / RFU HIST1H1D (11736915_at) / Fold change /veh HIST1H1D (11736915_at) / RFU CASKIN2 (11723855_a_at) / Fold change /veh CASKIN2 (11723855_a_at) / RFU LOC730098 (11760151_x_at) / Fold change /veh LOC730098 (11760151_x_at) / RFU OR4N2 (11742367_at) / Fold change /veh OR4N2 (11742367_at) / RFU PRRT2 (11749266_a_at) / Fold change /veh PRRT2 (11749266_a_at) / RFU SNX32 (11753110_a_at) / Fold change /veh SNX32 (11753110_a_at) / RFU CDHR5 (11726645_a_at) / Fold change /veh CDHR5 (11726645_a_at) / RFU RCAN1 (11760418_a_at) / Fold change /veh RCAN1 (11760418_a_at) / RFU FAM167A (11723789_a_at) / Fold change /veh FAM167A (11723789_a_at) / RFU FAM26E (11764081_at) / Fold change /veh FAM26E (11764081_at) / RFU ISYNA1 (11749810_s_at) / Fold change /veh ISYNA1 (11749810_s_at) / RFU ACY1 (11761880_at) / Fold change /veh ACY1 (11761880_at) / RFU 11764098_at / Fold change /veh 11764098_at / RFU SAMD14 (11745864_x_at) / Fold change /veh SAMD14 (11745864_x_at) / RFU NPB (11741838_a_at) / Fold change /veh NPB (11741838_a_at) / RFU TMPRSS6 (11731388_a_at) / Fold change /veh TMPRSS6 (11731388_a_at) / RFU KRTAP10-2 (11738614_at) / Fold change /veh KRTAP10-2 (11738614_at) / RFU ARHGAP8 /// PRR5-ARHGAP8 (11727945_x_at) / Fold change /veh ARHGAP8 /// PRR5-ARHGAP8 (11727945_x_at) / RFU KRTAP5-7 /// NADSYN1 (11734609_at) / Fold change /veh KRTAP5-7 /// NADSYN1 (11734609_at) / RFU RASL12 (11751679_a_at) / Fold change /veh RASL12 (11751679_a_at) / RFU CDKN2B (11736163_a_at) / Fold change /veh CDKN2B (11736163_a_at) / RFU PRF1 (11729649_at) / Fold change /veh PRF1 (11729649_at) / RFU, ZNF638 /// ZNF638-IT1 / Fold change vs veh, ZNF638 /// ZNF638-IT1 / RFU, PANK3 / Fold change vs veh, PANK3 / RFU, SH3YL1 / Fold change vs veh, SH3YL1 / RFU, ZEB2 / Fold change vs veh, ZEB2 / RFU, NRIP1 / Fold change vs veh, NRIP1 / RFU, PTTG1IP / Fold change vs veh, PTTG1IP / RFU, CAPN2 / Fold change vs veh, CAPN2 / RFU, MED14 / Fold change vs veh, MED14 / RFU, SNORA58 / Fold change vs veh, SNORA58 / RFU, C1orf63 / Fold change vs veh, C1orf63 / RFU, LRRFIP1 / Fold change vs veh, LRRFIP1 / RFU, NDUFAF7 / Fold change vs veh, NDUFAF7 / RFU, SLC12A2 / Fold change vs veh, SLC12A2 / RFU, IBTK / Fold change vs veh, IBTK / RFU, ESF1 / Fold change vs veh, ESF1 / Fold change vs veh, TMEM50B / RFU, TAOK1 / Fold change vs veh, TAOK1 / RFU, ACBD3 / Fold change vs veh, ACBD3 / RFU, TMA16 / Fold change vs veh, TMA16 / RFU, RWDD3 / Fold change vs veh, RWDD3 / RFU, BCAT1 / Fold change vs veh, BCAT1 / RFU, EDEM3 / Fold change vs veh, EDEM3 / RFU, TMEM33 / Fold change vs veh, TMEM33 / RFU, WDR75 / Fold change vs veh, WDR75 / RFU, AHCTF1 / Fold change vs veh, AHCTF1 / RFU, TFRC / Fold change vs veh, TFRC / RFU, ZDHHC17 / Fold change vs veh, ZDHHC17 / RFU, NOM1 / Fold change vs veh, NOM1 / RFU, ARL8B / Fold change vs veh, ARL8B / RFU, ZBTB11 / Fold change vs veh, ZBTB11 / RFU, TAMM41 / Fold change vs veh, TAMM41 / RFU, KIAA1704 /// LOC100996395 / Fold change vs veh, KIAA1704 /// LOC100996395 / RFU, ING1 / Fold change vs veh, ING1 / RFU, TRMT61B / Fold change vs veh, TRMT61B / RFU, FUBP3 / Fold change vs veh, FUBP3 / RFU, TP53 / Fold change vs veh, TP53 / RFU, TNKS2 / Fold change vs veh, TNKS2 / RFU, ZFP14 / Fold change vs veh, ZFP14 / RFU, ACTR2 / Fold change vs veh, ACTR2 / RFU, PPP3R1 / Fold change vs veh, PPP3R1 / RFU, PIK3R1 / Fold change vs veh, PIK3R1 / RFU, HNRNPA1 / Fold change vs veh, HNRNPA1 / RFU, RNF170 / Fold change vs veh, RNF170 / RFU, ZNF28 / Fold change vs veh, ZNF28 / RFU, RNGTT / Fold change vs veh, RNGTT / RFU, OGT / Fold change vs veh, OGT / RFU, BRD1 / Fold change vs veh, BRD1 / RFU, MARS / Fold change vs veh, MARS / RFU, ZNF655 / Fold change vs veh, ZNF655 / RFU, FAHD1 / Fold change vs veh, FAHD1 / RFU, BDP1 / Fold change vs veh, BDP1 / RFU, LRRCC1 / Fold change vs veh, LRRCC1 / RFU, ARID1A / Fold change vs veh, ARID1A / RFU, ZNF146 / Fold change vs veh, ZNF146 / RFU, ZNF330 / Fold change vs veh, ZNF330 / RFU, GPN3 / Fold change vs veh, GPN3 / RFU, C9orf123 / Fold change vs veh, C9orf123 / RFU, N4BP2L2 / Fold change vs veh, N4BP2L2 / RFU, ARFIP1 / Fold change vs veh, ARFIP1 / RFU, FAM179B / Fold change vs veh, FAM179B / RFU, BCL10 / Fold change vs veh, BCL10 / RFU, UHRF1BP1L / Fold change vs veh, UHRF1BP1L / RFU, BET1 / Fold change vs veh, BET1 / RFU, CNOT2 / Fold change vs veh, CNOT2 / RFU, ZNF268 / Fold change vs veh, ZNF268 / Fold change vs veh, ZNF507 / RFU, DGCR2 / Fold change vs veh, DGCR2 / RFU, WDSUB1 / Fold change vs veh, WDSUB1 / Fold change vs veh, HSP90B1 /// MIR3652 / RFU, ADSS / Fold change vs veh, ADSS / RFU, GK / Fold change vs veh, GK / RFU, ZNF148 / Fold change vs veh, ZNF148 / RFU, TAF9 / Fold change vs veh, TAF9 / RFU, SLC1A5 / Fold change vs veh, SLC1A5 / RFU, SLMO2 / Fold change vs veh, SLMO2 / RFU, ABCC4 / Fold change vs veh, ABCC4 / RFU, LOC101060439 /// RAP1B / Fold change vs veh, LOC101060439 /// RAP1B / RFU, RFX7 / Fold change vs veh, RFX7 / RFU, GTPBP10 / Fold change vs veh, GTPBP10 / RFU, CNEP1R1 / Fold change vs veh, CNEP1R1 / RFU, BIVM-ERCC5 /// ERCC5 / Fold change vs veh, BIVM-ERCC5 /// ERCC5 / RFU, ILF3 / Fold change vs veh, ILF3 / RFU 11762660_at / Fold change /veh 11762660_at / RFU VCAN (11757783_s_at) / Fold change /veh VCAN (11757783_s_at) / RFU DDX43 (11728927_at) / Fold change /veh DDX43 (11728927_at) / RFU KRT8 (11758188_x_at) / Fold change /veh KRT8 (11758188_x_at) / RFU NKD1 (11759106_at) / Fold change /veh NKD1 (11759106_at) / RFU SRD5A1 (11742802_a_at) / Fold change /veh SRD5A1 (11742802_a_at) / RFU TPSAB1 /// TPSB2 (11721975_s_at) / Fold change /veh TPSAB1 /// TPSB2 (11721975_s_at) / RFU GSTM3 (11746129_a_at) / Fold change /veh GSTM3 (11746129_a_at) / RFU IL23R (11737362_x_at) / Fold change /veh IL23R (11737362_x_at) / RFU TMEM51 (11727254_a_at) / Fold change /veh TMEM51 (11727254_a_at) / RFU PIWIL2 (11732686_x_at) / Fold change /veh PIWIL2 (11732686_x_at) / RFU ORM1 (11744905_x_at) / Fold change /veh ORM1 (11744905_x_at) / RFU CCDC152 (11743942_at) / Fold change /veh CCDC152 (11743942_at) / RFU ECM1 (11717891_a_at) / Fold change /veh ECM1 (11717891_a_at) / RFU IL23R (11748794_a_at) / Fold change /veh IL23R (11748794_a_at) / RFU TNFAIP8L3 (11732012_x_at) / Fold change /veh TNFAIP8L3 (11732012_x_at) / RFU MBOAT4 (11741988_at) / Fold change /veh MBOAT4 (11741988_at) / RFU 11764193_at / Fold change /veh 11764193_at / RFU TMEM53 (11763286_at) / Fold change /veh TMEM53 (11763286_at) / RFU MAGEB2 (11727129_at) / Fold change /veh MAGEB2 (11727129_at) / RFU TMEM200A (11744735_a_at) / Fold change /veh TMEM200A (11744735_a_at) / RFU CCDC152 (11751479_a_at) / Fold change /veh CCDC152 (11751479_a_at) / RFU FAM211A (11726209_a_at) / Fold change /veh FAM211A (11726209_a_at) / RFU RGS16 (11746705_a_at) / Fold change /veh RGS16 (11746705_a_at) / RFU VCAN (11755009_s_at) / Fold change /veh VCAN (11755009_s_at) / RFU RHOB (11743442_s_at) / Fold change /veh RHOB (11743442_s_at) / RFU RGS16 (11720943_a_at) / Fold change /veh RGS16 (11720943_a_at) / RFU RGS16 (11720944_at) / Fold change /veh RGS16 (11720944_at) / RFU, VPS4B / Fold change vs veh, VPS4B / RFU, CREB1 / Fold change vs veh, CREB1 / RFU, DNAJC13 / Fold change vs veh, DNAJC13 / RFU, GNAQ / Fold change vs veh, GNAQ / RFU, CDK5R1 / Fold change vs veh, CDK5R1 / RFU, ZRANB3 / Fold change vs veh, ZRANB3 / RFU, CUL4A / Fold change vs veh, CUL4A / RFU, CCNY / Fold change vs veh, CCNY / RFU, UFL1 / Fold change vs veh, UFL1 / RFU, COG3 / Fold change vs veh, COG3 / RFU, DIAPH2 / Fold change vs veh, DIAPH2 / RFU, SKA2 / Fold change vs veh, SKA2 / RFU, AFF3 / Fold change vs veh, AFF3 / RFU, LMF1 / Fold change vs veh, LMF1 / RFU, IPO11 / Fold change vs veh, IPO11 / RFU, DFFB / Fold change vs veh, DFFB / RFU, FOXP1 / Fold change vs veh, FOXP1 / RFU, CARD8 / Fold change vs veh, CARD8 / RFU, STRN3 / Fold change vs veh, STRN3 / RFU, ADK / Fold change vs veh, ADK / RFU, RASSF2 / Fold change vs veh, RASSF2 / RFU, WIPF1 / Fold change vs veh, WIPF1 / RFU, LARP1B / Fold change vs veh, LARP1B / RFU, RASA1 / Fold change vs veh, RASA1 / RFU, RB1 / Fold change vs veh, RB1 / RFU, PPFIA1 / Fold change vs veh, PPFIA1 / RFU, MAT2A / Fold change vs veh, MAT2A / RFU, CCT5 / Fold change vs veh, CCT5 / RFU, WDR92 / Fold change vs veh, WDR92 / RFU, CUX1 / Fold change vs veh, CUX1 / RFU, TTC7A / Fold change vs veh, TTC7A / RFU, TMEM135 / Fold change vs veh, TMEM135 / RFU, DEPTOR / Fold change vs veh, DEPTOR / RFU, CPM / Fold change vs veh, CPM / RFU, DNAJB6 / Fold change vs veh, DNAJB6 / RFU, CACNA2D3 / Fold change vs veh, CACNA2D3 / RFU, DTX4 / Fold change vs veh, DTX4 / RFU, TFCP2 / Fold change vs veh, TFCP2 / RFU, GMCL1 /// GMCL1P1 / Fold change vs veh, GMCL1 /// GMCL1P1 / RFU, AEBP2 / Fold change vs veh, AEBP2 / RFU, SNHG1 /// SNORD22 /// SNORD25 /// SNORD26 /// SNORD27 /// SNORD28 /// SNORD29 /// SNORD31 / Fold change vs veh, SNHG1 /// SNORD22 /// SNORD25 /// SNORD26 /// SNORD27 /// SNORD28 /// SNORD29 /// SNORD31 / Fold change (Aza/veh), C12orf56 (ProbeSet 11735607_a_at) / Fold change (ACY-1035/veh), C12orf56 (ProbeSet 11735607_a_at) / Fold change (Aza/veh), FGFR1OP (ProbeSet 11751329_s_at) / Fold change (ACY-1035/veh), FGFR1OP (ProbeSet 11751329_s_at) / Fold change (Aza/veh), VPS36 (ProbeSet 11739960_a_at) / Fold change (ACY-1035/veh), VPS36 (ProbeSet 11739960_a_at) / RFU SYPL1 (11715823_x_at) / Fold change /veh SYPL1 (11715823_x_at) / RFU IGFBP7 (11715501_s_at) / Fold change /veh IGFBP7 (11715501_s_at) / RFU REEP3 (11722064_at) / Fold change /veh REEP3 (11722064_at) / RFU IGLL1 (11728026_x_at) / Fold change /veh IGLL1 (11728026_x_at): dose or concentration left out as unconfirmed. Particulars: MV-4-11 cells, 48 hours. It counts as cell-based, human.

SMILES strings stand for the structures.

With `Nc1ncn([C@@H]2O[C@H](CO)[C@@H](O)[C@H]2O)c(=O)n1` [azacitidine], the “RFU RHOB (11743442_s_at)” value was 110.59 RFU.
